According to PubChem BioAssay AID248 (DTP/NCI, 2004):
Where “and” joins values, the source holds several entries; their conditions need not be identical. Identical values can stand only once. Toxic doses and inconclusive results are not listed. No stated cut-off is given here; in the data, active means T/C of 150% or more; inactive means T/C below 125%.

Tested on: L1210 leukemia ip in BDF1 mice, survival T/C
Assay: NCI In Vivo Anticancer Drug Screen. Data for tumor model L1210 Leukemia (intraperitoneal) in B6D2F1 (BDF1) mice
Details: endpoint: mean survival time, higher = longer survival
Summary of the method: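 Read-out is survival time, reported as the treated-group measurement over the vehicle-control measurement.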

[1] = dose: 100.0 mg/kg/injection, schedule: Q01DX009 (ip), vehicle: Klucel (hydroxypropylcellulose) (HPC)
[2] = dose: 100.0 mg/kg/injection, schedule: Q04DX002 (ip), vehicle: Klucel (hydroxypropylcellulose) (HPC)
[3] = dose: 200.0 mg/kg/injection, schedule: Q04DX002 (ip), vehicle: Klucel (hydroxypropylcellulose) (HPC)
[4] = dose: 400.0 mg/kg/injection, schedule: Q04DX002 (ip), vehicle: Klucel (hydroxypropylcellulose) (HPC)
[5] = dose: 50.0 mg/kg/injection, schedule: Q04DX003 (ip), vehicle: water
[6] = dose: 100.0 mg/kg/injection, schedule: Q01DX001 (ip), vehicle: saline
[7] = dose: 6.25 mg/kg/injection, schedule: Q01DX009 (ip), vehicle: saline
[8] = dose: 12.5 mg/kg/injection, schedule: Q01DX009 (ip), vehicle: saline
[9] = dose: 100.0 mg/kg/injection, schedule: Q01DX001 (ip), vehicle: Klucel (hydroxypropylcellulose) (HPC)
[10] = dose: 200.0 mg/kg/injection, schedule: Q01DX001 (ip), vehicle: Klucel (hydroxypropylcellulose) (HPC)
[11] = dose: 400.0 mg/kg/injection, schedule: Q01DX001 (ip), vehicle: Klucel (hydroxypropylcellulose) (HPC)
[12] = dose: 50.0 mg/kg/injection, schedule: Q01DX001 (ip), vehicle: saline
[13] = dose: 200.0 mg/kg/injection, schedule: Q01DX001 (ip), vehicle: saline
[14] = dose: 400.0 mg/kg/injection, schedule: Q01DX001 (ip), vehicle: saline

Measured: T/C

O=C(NCCCl)N(c1ccccc1)c1cccc(C(F)(F)F)c1
inactive: dose: 100.0 mg/kg/injection, schedule: Q01DX005 (ip), vehicle: Klucel (hydroxypropylcellulose) (HPC) 102 % of control | [1] 98 % of control | [2] 114 % of control | dose: 200.0 mg/kg/injection, schedule: Q01DX005 (ip), vehicle: Klucel (hydroxypropylcellulose) (HPC) 91 % of control | dose: 200.0 mg/kg/injection, schedule: Q01DX009 (ip), vehicle: Klucel (hydroxypropylcellulose) (HPC) 98 % of control | [3] 96 % of control | dose: 400.0 mg/kg/injection, schedule: Q01DX005 (ip), vehicle: Klucel (hydroxypropylcellulose) (HPC) 94 % of control | dose: 400.0 mg/kg/injection, schedule: Q01DX009 (ip), vehicle: Klucel (hydroxypropylcellulose) (HPC) 98 % of control | [4] 104 % of control

Cc1cc2nc(SCC(=O)O)[nH]c2cc1C
inactive: dose: 100.0 mg/kg/injection, schedule: Q01DX009 (ip), vehicle: gum acacia 96 % of control | dose: 100.0 mg/kg/injection, schedule: Q04DX003 (ip), vehicle: gum acacia 99 % of control | dose: 200.0 mg/kg/injection, schedule: Q01DX009 (ip), vehicle: gum acacia 89 % of control | dose: 200.0 mg/kg/injection, schedule: Q04DX003 (ip), vehicle: gum acacia 103 % of control | dose: 400.0 mg/kg/injection, schedule: Q04DX003 (ip), vehicle: gum acacia 93 % of control

O=C(Nc1ccc(Cl)c(C(F)(F)F)c1)Oc1cccnc1
inactive: dose: 25.0 mg/kg/injection, schedule: Q01DX009 (ip), vehicle: Klucel (hydroxypropylcellulose) (HPC) 94 % of control | [1] 92 % of control and 93 % of control

O=C(O)c1ccc(N2C(=O)C=CC2=O)cc1 (tested in a mixture with another compound)
inactive: dose: 12.5 mg/kg/injection, schedule: Q01DX009 (ip), vehicle: acetone 90 % of control

CCOC(=O)CNCc1ccc(Cl)c(Cl)c1
inactive: [5] 106 % of control | dose: 100.0 mg/kg/injection, schedule: Q04DX003 (ip), vehicle: water 95 % of control and 106 % of control | dose: 200.0 mg/kg/injection, schedule: Q04DX003 (ip), vehicle: water 87 % of control and 92 % of control

O=C1CCSc2c1ccc1ccccc21
inactive: [6] 87 % of control

CC[N+]1(C)CC2C3CCC(C)(O3)C2C1 (stereo not given)
inactive: dose: 44.0 mg/kg/injection, schedule: Q01DX Z (ip), vehicle: methylcellulose (MC) 104 % of control | dose: 66.0 mg/kg/injection, schedule: Q01DX Z (ip), vehicle: methylcellulose (MC) 98 % of control | dose: 100.0 mg/kg/injection, schedule: Q01DX Z (ip), vehicle: methylcellulose (MC) 104 % of control

O=[N+]([O-])C(CO)(CO)CC(F)(F)F
inactive: dose: 3.13 mg/kg/injection, schedule: Q01DX009 (ip), vehicle: saline 96 % of control | [7] 98 % of control | [8] 102 % of control

CCN(CC)CCn1ccnc1C
inactive: dose: 50.0 mg/kg/injection, schedule: Q01DX005 (ip), vehicle: saline 109 % of control | dose: 100.0 mg/kg/injection, schedule: Q01DX005 (ip), vehicle: saline 104 % of control | dose: 200.0 mg/kg/injection, schedule: Q01DX005 (ip), vehicle: saline 104 % of control

C=CSCCCC(C)=O
inactive: [9] 97 % of control | [10] 103 % of control | [11] 101 % of control

CC(N)CNc1ccccc1 (stereo not given)
inactive: dose: 12.5 mg/kg/injection, schedule: Q04DX003 (ip), vehicle: water 105 % of control | dose: 25.0 mg/kg/injection, schedule: Q04DX003 (ip), vehicle: water 98 % of control | [5] 104 % of control

CN(C)CCCN1CCCCC1
inactive: [12] 106 % of control | [6] 115 % of control | [13] 110 % of control | [14] 104 % of control

CS/C(N)=N\N=C/c1ccccc1
inactive: [7] 102 % of control | [8] 102 % of control | dose: 25.0 mg/kg/injection, schedule: Q01DX001 (ip), vehicle: saline 117 % of control | dose: 25.0 mg/kg/injection, schedule: Q01DX009 (ip), vehicle: saline 102 % of control | dose: 25.0 mg/kg/injection, schedule: Q04DX003 (ip), vehicle: saline 97 % of control | [12] 97 % of control | [6] 102 % of control and 105 % of control

CCN(C(=O)c1ccc2c3c(ccc(C(=O)N(CC)c4ccccc4)c13)CC2)c1ccccc1
inactive: [6] 104 % of control | [13] 104 % of control | [14] 95 % of control

OC/C=C/Cl
inactive: dose: 25.0 mg/kg/injection, schedule: Q01DX001 (ip), vehicle: acetone 106 % of control | dose: 50.0 mg/kg/injection, schedule: Q01DX001 (ip), vehicle: acetone 97 % of control | dose: 100.0 mg/kg/injection, schedule: Q01DX001 (ip), vehicle: acetone 98 % of control

CC(C(=O)O)C(C)(O)C(C)(C)C (stereo not given)
inactive: dose: 100.0 mg/kg/injection, schedule: Q04DX002 (ip), vehicle: saline 104 % of control | dose: 200.0 mg/kg/injection, schedule: Q04DX002 (ip), vehicle: saline 97 % of control | dose: 400.0 mg/kg/injection, schedule: Q04DX002 (ip), vehicle: saline 108 % of control

O=[N+]([O-])c1cccc(C=Nc2ccc(Nc3ccccc3)cc2)c1
inactive: [2] 114 % of control | [3] 100 % of control | [4] 111 % of control

CCOC(=O)C1(O)CSC(O)(C(=O)OCC)CS1 (stereo not given)
inactive: dose: 100.0 mg/kg/injection, schedule: Q01DX001 (ip), vehicle: other 101 % of control | dose: 200.0 mg/kg/injection, schedule: Q01DX001 (ip), vehicle: other 97 % of control | dose: 400.0 mg/kg/injection, schedule: Q01DX001 (ip), vehicle: other 92 % of control

NCC(O)COc1ccccc1N (stereo not given)
inactive: dose: 3.12 mg/kg/injection, schedule: Q01DX009 (ip), vehicle: saline 97 % of control | [7] 106 % of control | [8] 100 % of control | dose: 12.5 mg/kg/injection, schedule: Q04DX003 (ip), vehicle: saline 93 % of control

CC1OC(OC2CCC3(C=O)C4CCC5(C)C(C6=CC(=O)OC6)CCC5(O)C4CCC3(O)C2)C(O)C(O)C1O (stereo not given)
inactive: dose: 3.0 mg/kg/injection, schedule: Q01DX001 (ip), vehicle: carboxymethylcellulose (CMC) 96 % of control | dose: 6.0 mg/kg/injection, schedule: Q01DX001 (ip), vehicle: carboxymethylcellulose (CMC) 98 % of control

CN(C)CC1CCCCN1 (stereo not given)
inactive: dose: 100.0 mg/kg/injection, schedule: Q04DX003 (ip), vehicle: saline 93 % of control | dose: 200.0 mg/kg/injection, schedule: Q04DX003 (ip), vehicle: saline 97 % of control

Clc1ccc2c[n+]3ccccc3cc2c1
inactive: dose: 2.0 mg/kg/injection, schedule: Q01DX Z (ip), vehicle: carboxymethylcellulose (CMC) 102 % of control | dose: 4.0 mg/kg/injection, schedule: Q01DX Z (ip), vehicle: carboxymethylcellulose (CMC) 92 % of control | dose: 8.0 mg/kg/injection, schedule: Q01DX Z (ip), vehicle: carboxymethylcellulose (CMC) 103 % of control | dose: 16.0 mg/kg/injection, schedule: Q01DX Z (ip), vehicle: carboxymethylcellulose (CMC) 105 % of control

Cn1c(=O)c2[nH]c(C3CC4C=CC3C4)nc2n(C)c1=O (stereo not given)
inactive: [12] 93 % of control | [6] 104 % of control | [13] 98 % of control

CCOC(=O)c1nnc(CC)[nH]c1=O
inactive: [9] 106 % of control | [10] 111 % of control | [11] 90 % of control
